Where two headings read alike, the source gives them in different places.
Key:
[1] = system: Caco-2 cell monolayers; assay type: in vitro ADME, human
Method: (§1) Caco-2 cells were purchased from DS Pharma (Osaka, Japan). The cells (passage 20–27) were cultured in E-MEM containing 10% (v/v) FBS, 1% (v/v) MEM-NEAA, and 1% (v/v) PS. The cells were incubated at 37°C in an atmosphere of 5% CO2 under 95% relative humidity. When the cells reached 80–90% confluence, they were passaged at a density of 1.0 × 10^5 cells onto a 12-well Transwell Permeable Support (0.4-μm pore polyester membrane insert, Corning, NY, USA). The cells were cultured for 19–21 days to obtain a monolayer. The culture medium (0.6 ml in the apical side and 1.5 ml in the basolateral side) was replaced every 1–2 days. The integrity of the Caco-2 cell monolayer was evaluated by measuring transepithelial electrical resistance (TEER) using a Millicell-ERS-2 system (Merck, Darmstadt, Germany). Only cell monolayers with final TEER values above 700 Ω · cm^2, indicative of high barrier integrity, were used for the transport assays.
(§2) Caco-2 cells monolayers were preincubated in HBSS for 30 min at 37°C. Subsequently, 0.6 ml of 0.5 mg/ml Abi and Ahe and 1.5 ml of HBSS to the apical and basolateral sides, respectively. After incubation for 0, 1, 2, and 3 h, the supernatant was collected from the basolateral side. To identify the transport mechanisms, Caco-2 cell monolayers were preincubated with sodium azide (1 mM), colchicine (1 mM), or cytochalasin B (5 μg/ml) dissolved in HBSS with 0.1% DMSO for 30 min, followed by the incubation of 0.5 mg/ml Abi and Ahe for 2 h. To remove salt, the collected supernatant was applied to the graphitized carbon solid-phase extraction (GC-SPE) using InertSep GC (200 mg/3 ml) (GL Sciences Inc., Tokyo, Japan), according to the method described by Ninonuevo et al. ([12]). The SPE cartridge was first equilibrated with 6 ml of 80% acetonitrile in 0.1% acetic acid (v/v), followed by 3 ml of DW. The basal solution was dissolved in DW to 3 ml and loaded onto the cartridge. The salts were removed by washing with 6 ml of DW, and Abi or Ahe was eluted with 3 ml of 20% acetonitrile. After ABEE derivatization, the collected solution was evaporated to dryness and subjected to LC-MS. The apparent permeability coefficients (Papp) were calculated ([13]) as Papp = (dQ/dt) × (1/AC0), where dQ/dt is the permeation rate (μg/s), A is the area of the monolayer of Caco-2 cells (cm^2), and C0 is the initial concentration of Abi or Ahe in the apical chamber (μg/ml).

[2] = system: peritoneal macrophages; parameters: method as in PMID 22791164; settings: oral administration to mice, 3% AOSs containing water for 3 weeks; cited from earlier work
[3] = system: Caco-2 cell monolayers; assay type: in vitro ADME, human; remark: listed apart in the source
Method: The correlation between TEER and permeation rate was examined to confirm the occurrence of Abi and Ahe transport via the paracellular pathway by using the LY fluorescent stain for comparison. Thus, Abi, Ahe, and LY were added to the apical chamber with or without cytochalasin B. The basal chamber solution was collected, and the TEER was measured every 1 h for 3 h, thereby quantifying Abi, Ahe, and LY in the basal chamber. The TEER and quantified values are plotted as a scatter plot in Figure 6.

[4] = rat, in vivo, po
Method: To prepare the standard curve samples of AOSs, the AOSs were labeled with ABEE using an ABEE labeling kit (J-Chemical, Tokyo, Japan) according to the method developed by Yasuno et al. ([11]). The reaction was performed according to the instructions provided by the manufacturer. Briefly, 40 μl of the ABEE reagent solution was added to 10 μl of the solution of AOSs and the mixture was vortexed and incubated at 80°C for 1 h. After cooling to 15–20°C, 200 μl of DW and an equal volume of chloroform were added, and the mixture was then vortexed and centrifuged for 1 min. The upper layer was filtered through a polytetrafluoroethylene membrane (4 mm diameter, 0.45-μm pore size; Membrane Solutions Limited, Plano, TX, USA) and subjected to LC-MS.
For the HPLC measurements, an LC-20AD pump (Shimadzu) fitted with a DGU-20A 5R degassing unit (Shimadzu) was used. The analytes were injected using a SIL-20AC autosampler (Shimadzu). In addition, a CTO-20AC column oven (Shimadzu) was used, and entire equipment was controlled using a CBM-20A unit (Shimadzu). The samples were separated on a Shim-pack VP-ODS (150 × 2.0 mm, 4.6 μm; Shimadzu) combined with a Shim-pack GVP-ODS guard column (2.0 mm i.d. × 5 mm, 4.6 μm; Shimadzu). The mobile phase consisted of acetic acid (0.1%) in water (A) and acetic acid (0.1%) in acetonitrile (B). The gradient conditions were as follows: 0–30 min, 9%−13% B; 30–45 min, 80% B; 45–60 min, 9% B. The flow rate was 0.2 ml/min. The column oven temperature was set at 60°C, and the autosampler temperature was 10°C.
The detection was performed using an LCMS-2020 (Shimadzu) ESI-MS device. The analytes were identified and quantified by selected ion monitoring in the positive-ion mode. The MS conditions were as follows: interface temperature, 350°C; desolvation line (DL) temperature, 250°C; heat block temperature, 200°C; nebulizer gas flow, 1.5 L/min; drying gas flow, 15 L/min; interface voltage, 4.5 kV; DL voltage, 0 kV.
Fifteen female Sprague–Dawley rats, aged 7 weeks, were purchased from Charles River Laboratories Japan (Kanagawa, Japan). The rats were acclimatized to standard laboratory conditions (20–25°C, 40%−70% humidity, and 12 h light/dark cycle) for 1 week.
After a fasting period of 12 h, 2 ml of phosphate-buffered saline (pH 7.4) containing 0%, 10%, or 50% AOSs was orally administered to five rats from each group (220–250 g body weight) using feeding gavages. The AOSs comprised 30.2, 29.1, and 31.6% of Abi, Ate, and Ahe, respectively. Blood (100 μl) was collected before and after 1, 2, 4, 8, and 24 h of oral administration from the tail vein using 10,000 U heparin-coated syringes (1 ml) with a 26G × 1/2 ” needle. The blood samples were centrifuged at 1,000 g for 10 min, and the supernatants were collected. Acetonitrile was added to the plasma samples at a final concentration of 60%. The samples were vigorously vortexed and centrifuged at 6,000 g for 5 min; the supernatants were collected and evaporated to dryness. Subsequently, the dried samples were dissolved in 10 μl of DW and subjected to ABEE derivatization before LC-MS analysis. The area under the curve (AUC) of plasma concentration was calculated using the trapezoid formula.

[5] = system: Caco-2 cell monolayers; assay: Transepithelial permeation route analysis with transport inhibitors in Caco-2 cell monolayers; settings: for effect of sodium azide on transport rate: 1 mM sodium azide preincubated 30 min, then 2 h incubation; for effect of cytochalasin B on transepithelial permeability: Caco-2; for effect on TEER value of Caco-2 cell monolayers: inhibitor in apical chamber (sodium azide 1 mM, colchicine 1 mM, cytochalasin B 5 μg/ml), TEER after 2 h
Method: as §1, §2
The effects of various inhibitors on the transepithelial absorption through Caco-2 cell monolayers were examined to identify the transport routes of Abi and Ahe. We used 1 mM sodium azide and 1 mM colchicine as an electron-transport-chain inhibitor and a transcytosis inhibitor, respectively, to determine whether an energy-dependent pathway is involved. […] Next, we used cytochalasin B as a tight junction disruptor to investigate the involvement of the paracellular pathway in the transepithelial permeation of Abi and Ahe. Cytochalasin B increases the paracellular permeability by affecting the tight junction structure through the myosin light chain kinase activation ([14]).

[6] = parameters: method as in PMID 20378994; settings: cited from earlier work

Compound	Pearson correlation coefficient value between TEER and amount permeated [3]	AUC ([4]; 1 g/kg) [µg·h/mL]	Cmax ([4]; 1 g/kg) [ng/mL]	Tmax ([4]; 1 g/kg) [h]	AUC ([4]; 5 g/kg) [µg·h/mL]	Cmax ([4]; 5 g/kg) [ng/mL]	Tmax ([4]; 5 g/kg) [h]	effect on TEER value of Caco-2 cell monolayers [5]	also measured
OC[C@H]1O[C@@H](O[C@H]2[C@H]3OC[C@@H]2OC(O)[C@H]3O)[C@H](O)[C@@H](O)[C@H]1O (mixture of isomers) [Abi, agarobiose]	−0.832	0.62 ± 0.18	76.4 ± 36.7	4	2.56 ± 0.81	439.8 ± 182.6	4	–	Papp [1]: 0.41 ± 0.03 10^−6 cm/s; percentage permeated [1]: 0.27 ± 0.02 %/h; nitric oxide (NO) production on stimulated peritoneal macrophages [2]: suppression; effect of sodium azide on transport rate [5]: did not have any significant effect; effect of cytochalasin B on transepithelial permeability [5]: increased
OC[C@H]1O[C@@H](O[C@H]2[C@H]3OC[C@@H]2O[C@@H](O[C@H]2[C@@H](O)[C@@H](CO)O[C@@H](O[C@H]4[C@H]5OC[C@@H]4O[C@@H](O[C@H]4[C@@H](O)[C@@H](CO)O[C@@H](O[C@H]6[C@H]7OC[C@@H]6OC(O)[C@H]7O)[C@@H]4O)[C@H]5O)[C@@H]2O)[C@H]3O)[C@H](O)[C@@H](O)[C@H]1O (mixture of isomers) [Ahe, agarohexaose]	−0.814	0.29 ± 0.27	42.1 ± 37.1	4	0.46 ± 0.25	107.8 ± 55.0	4	–	Papp [1]: 0.21 ± 0.01 10^−6 cm/s; percentage permeated [1]: 0.14 ± 0.01 %/h; effect of sodium azide on transport rate [5]: did not have any significant effect; effect of cytochalasin B on transepithelial permeability [5]: increased
OC[C@H]1O[C@@H](O[C@H]2[C@H]3OC[C@@H]2O[C@@H](O[C@H]2[C@@H](O)[C@@H](CO)O[C@@H](O[C@H]4[C@H]5OC[C@@H]4O[C@@H](O)[C@H]5O)[C@@H]2O)[C@H]3O)[C@H](O)[C@@H](O)[C@H]1O [Ate, agarotetraose]	–	0.39 ± 0.17	58.9 ± 37.6	4	1.39 ± 0.45	239.5 ± 98.2	4	–	nitric oxide (NO) production on stimulated peritoneal macrophages [2]: suppression
COc1cc2c(c(OC)c1OC)-c1ccc(OC)c(=O)cc1[C@@H](NC(C)=O)CC2 [colchicine, reference compound]	–	–	–	–	–	–	–	did not have any significant effect	–
C=C1[C@@H](C)[C@H]2[C@H](Cc3ccccc3)NC(=O)[C@]23OC(=O)/C=C/[C@H](O)CCC[C@@H](C)C/C=C/[C@H]3[C@@H]1O [cytochalasin B, reference compound]	–	–	–	–	–	–	–	significantly decreased	–
OC[C@H]1O[C@@H](O)[C@H](O)[C@@H](O[C@@H]2O[C@H]3CO[C@@H]([C@@H]2O)[C@@H]3O[C@@H]2O[C@H](CO)[C@H](O)[C@H](O[C@@H]3O[C@H]4CO[C@@H]([C@@H]3O)[C@@H]4O[C@@H]3O[C@H](CO)[C@H](O)[C@H](O[C@@H]4O[C@H]5CO[C@@H]([C@@H]4O)[C@@H]5O)[C@H]3O)[C@H]2O)[C@H]1O [neoagarohexaose]	–	–	–	–	–	–	–	–	anti-inflammatory activity [6]: no anti-inflammatory activity
[N-]=[N+]=[N-].[Na+] [sodium azide, reference compound]	–	–	–	–	–	–	–	did not have any significant effect	–
Lucifer yellow CH dilithium salt [LY, reference compound]	−0.779	–	–	–	–	–	–	–	–
